According to patent publication US3945994A, “Novel acid compounds” (Gist-Brocades N.V., priority 1973, dated 1976):
≈ marks a conversion by molar mass, not a printed value.

What was measured:
Assay type in all cases: cell-based
[1] = tested on: Bacillus subtilis ATCC 6633; details: ATCC6633, agar serial dilution, 24 hours at 37°C
[2] = tested on: Staphylococcus aureus A 321; details: A321, agar serial dilution, 24 hours at 37°C
[3] = tested on: Staphylococcus aureus A 355'; details: agar serial dilution, 24 hours at 37°C
[4] = tested on: Staphylococcus aureus A 2000; details: A2000, agar serial dilution, 24 hours at 37°C
[5] = tested on: Staphylococcus aureus A 2001; details: A2001, agar serial dilution, 24 hours at 37°C
[6] = tested on: Streptococcus haemolyticus A 266; details: A266, agar serial dilution, 24 hours at 37°C
[7] = tested on: Streptococcus faecalis L 80; details: Enterococcus faecalis, L80; agar serial dilution, 24 hours at 37°C
[8] = tested on: Diplococcus pneumoniae L 54; details: Streptococcus pneumoniae, L54; agar serial dilution, 24 hours at 37°C
[9] = tested on: Haemophilus influenzae A 1030; details: A1030, agar serial dilution, 24 hours at 37°C
[10] = tested on: Pasteurella multocida A 723; details: A723, agar serial dilution, 24 hours at 37°C
[11] = tested on: Klebsiella pneumoniae A 809; details: A809, agar serial dilution, 24 hours at 37°C
Salmonella dublin P 43 = details: Salmonella enterica, P43; agar serial dilution, 24 hours at 37°C
[12] = tested on: Salmonella typhimurium R 127; details: Salmonella enterica, agar serial dilution, 24 hours at 37°C
Escherichia coli U 20 = details: U20, agar serial dilution, 24 hours at 37°C
[13] = tested on: Pseudomonas aeruginosa H 10; details: H10, agar serial dilution, 24 hours at 37°C
[14] = tested on: Pseudomonas aeruginosa 2396; details: agar serial dilution, 24 hours at 37°C
[15] = tested on: Pseudomonas aeruginosa Wyeth A 1058; details: WYETHA1058, agar serial dilution, 24 hours at 37°C
Proteus rettgeri A 821 = details: Providencia rettgeri, A821; agar serial dilution, 24 hours at 37°C
Proteus mirabilis H 3 = details: H3, agar serial dilution, 24 hours at 37°C
Proteus mirabilis A 1200 = details: A1200, agar serial dilution, 24 hours at 37°C
Proteus morganii 2241 = details: Morganella morganii, agar serial dilution, 24 hours at 37°C

CCOC(=O)NNS(=O)(=O)NC(=O)N[C@@H](C(=O)N[C@@H]1C(=O)N2[C@@H]1SC(C)(C)[C@@H]2C(=O)O)c1ccccc1 [XV, D-6-[α-{3-(ethoxycarbonylhydrazinosulfonyl)-ureido}benzylcarbonamido]-penicillanic acid]
MIC [1]: 1 µg/mL (≈ 1.79 µM)
MIC [2]: 1.5 µg/mL (≈ 2.69 µM)
MIC [3]: 12.5 µg/mL (≈ 22.4 µM)
MIC [4]: 12.5 µg/mL (≈ 22.4 µM)
MIC [5]: 6 µg/mL (≈ 10.7 µM)
MIC [6]: 0.5 µg/mL (≈ 0.895 µM)
MIC [7]: 25 µg/mL (≈ 44.8 µM)
MIC [8]: 9 µg/mL (≈ 16.1 µM)
MIC [9]: 1.5 µg/mL (≈ 2.69 µM)
MIC [10]: 0.25 µg/mL (≈ 0.448 µM)
MIC [11]: 100 µg/mL (≈ 179 µM)
MIC (Salmonella dublin P 43): 12.5 µg/mL (≈ 22.4 µM)
MIC [12]: 50 µg/mL (≈ 89.5 µM)
MIC (Escherichia coli U 20): 12.5 µg/mL (≈ 22.4 µM)
MIC [13]: > 100 µg/mL
MIC [14]: 50 µg/mL (≈ 89.5 µM)
MIC [15]: 100 µg/mL (≈ 179 µM)
MIC (Proteus rettgeri A 821): 1 µg/mL (≈ 1.79 µM)
MIC (Proteus mirabilis H 3): 3 µg/mL (≈ 5.37 µM)
MIC (Proteus mirabilis A 1200): 1.5 µg/mL (≈ 2.69 µM)
MIC (Proteus morganii 2241): 6 µg/mL (≈ 10.7 µM)
